Reference: patent publication US20180230160A1, “2-AMINO-7A-PHENYL-3,4,4A,5,7,7A-HEXAHYDROFURO[3,4-B]PYRIDINES AS BACE1 INHIBITORS” (H. Lundbeck A/S, priority 2015, published 2018)
Like-named read-outs stand apart in the source and are kept apart here.

Key:
Aβ40 peptide = experiment: Assessment of Aβ peptide levels in rat brain and plasma following BACE1 inhibition (Aβ40 ELISA); format: in vivo; details: 3 hours post dose, vs vehicle
Method: Assessment of Aβ Peptide Levels in Rat Brain and Plasma Following BACE1 Inhibition. Animals.
(§1) Young adult Male Sprague Dawley rats of approximately 250 g weight were purchased from Charles River and received 0-30 mg/kg of vehicle (10% HP betaCD+1M MeSO4, pH 2.5) or test compounds (dissolved in vehicle) only by oral gavage (p.o). The compounds are dosed at a volume of 5 ml/kg. Cohorts of 5-10 animals were established for each treatment condition.
(§2) At T=180 minutes after initial dosing the animals were stunned and decapitated with a guillotine. Trunk-blood was sampled in EDTA coated tubes after decapitation of the animal. The blood was centrifuged at 2200G at 4° C. for 15 minutes and the plasma was collected and frozen at −80° C. The blood was aliquoted for Aβ ELISA and DMPK analysis. Immediately following sacrifice, the brain was extracted and split into 2 halves. The right hemibrains were snap frozen on dry ice and stored at −80° C. The left half was dissected; with the front forebrain taken for Aβ ELISA and the remainder used for DMPK analysis. These samples were also snap frozen on dry ice and stored at −80° C. until use for analysis.
The cortex samples were thawed slightly on wet ice before they were homogenized with a small volume dispersing instrument (T10 basic ULTRA-TURRAX®) which was set at speed 5 for approximately 5-7 sec. The tissue was processed in a 10 times volume of the weight, for example 100 mg of tissue was homogenized in 1000 μL of Homogenization buffer. Homogenization buffer: 50 ml Milli Q water+50 nM NaCl+0.2% Diethylamin (DEA)+1 tablet of Complete Protease inhibitor cocktail+1 nM 4-(2-aminoethyl) benzenesulfonyl fluoride hydrochloride irreversible serine protease inhibitor (AEBSF).
After homogenization 450 μL aliquots of the samples are collected into a 1.5 ml Eppendorf tube and placed on wet ice, 0.5% NP-40 (50 ul) was added to all samples and then they were incubated on ice for 30 min. After which all samples were sonicated using an Ultrasonic homogenizer with 20 kHz homogeneous sound (SONOPLUS HD2070, Bandelin Electronic) 10 pulse set at 12-13% power to extract all the Aβ species. The samples were then centrifuged (Ole Dich 157 MPRF Micro centrifuge) at 20000G for 20 minutes at 4° C. After centrifugation 285 μL of the supernatant was pipetted into 600 μL microtubes tubes and neutralized with 15 μL of 1M Tris-HCL buffer.
WAKO 294-62501 Human/Rat Abeta amyloid (40) kit was used for all ELISA analyses. 30 μL plasma samples or 30 μL of the cortex supernatants generated as described above were placed in 600 μL microtubes tubes on wet ice. To this 30 μL of 8M urea (AppliChem A1049, 9025) was added to generate a 2-fold dilution. Both plasma and cortex supernatants were incubated on ice for 30 min. Standard rows were prepared from the standard peptide stock provided in the kit and standard diluent containing 1.6M urea (200 μL 8M urea+800 μL of standard diluent) and 0.8M urea (400 μL 8M Urea+3600 μL Standard diluent). A serial 2-fold dilution of Aβ40 from 100 pmol/ml to 0 pmol/L was prepared for the assay.
After incubation with urea, all samples were further diluted by addition of 5 times standard diluent from the Kit. This was done by adding 240 μL Standard Diluent to 60 μL sample/urea mixture, which was then mixed well. 100 μL of each diluted sample was pipetted into designated wells of the ELISA plate in duplicates. The plate was then covered and incubated overnight at 4° C. The following day, the ELISA kit was brought to room temperature before use. The incubated plate was washed 5 times with the 20× washing solution diluted in Milli Q water. 100 μL HRP-conjugate was applied to each well, and the plate was covered and incubates at 4° C. for 1 hr. The wash was repeated again for 5 times. 100 μL 3,3′,5,5′-Tetramethylbenzidine (TMB) solution was applied to each well and the plate was covered and incubated in the dark at room temperature for 30 minutes. […]

[1] = Compound exposure in rat brain and plasma after oral dosing (DMPK analysis); format: in vivo; details: male, Sprague Dawley, 3 hours post dose; for concentration at 3 h: read-out: Exp (exposure); for Kp at 3 h: brain/plasma, read-out: Brain/Plasma ratio
Method: as §1, §2
The results of the administration of representative Compounds of Examples 1, 2, 5, […], of brain and plasma samples collected at 3 hours post dose and then following exposures, as described above, are tabulated below.

P-gp (MDR1) = experiment: MDCK-MDR1 assay (permeability, efflux ratio); format: in vitro ADME; details: dog, Papp BA/Papp AB, 60-minute incubation
Method: The permeability of the test compounds was assessed in MDCK-MDR1 cells that were cultured to confluency (4-6 days) in a 96 transwell plate. Test compounds were diluted with the transport buffer (HBSS+1% BSA) to a concentration of 0.5 μM and applied to the apical or basolateral side of the cell monolayer. Permeation of the test compounds from A to B direction or B to A direction was determined in triplicate over a 60-minute incubation time at 37° C. and 5% CO2 with a relative humidity of 95%. Test compounds were quantified by LC-MS/MS analysis based on the peaks area ratios of analyte/IS in both the receiver and donor wells of the transwell plate. The apparent permeability coefficient Papp (cm/s) was calculated using the equation: […]
Where dCr/dt is the cumulative concentration of compound in the receiver chamber as a function of time (μM/s); Vr is the solution volume in the receiver chamber (0.05 mL on the apical side; 0.25 mL on the basolateral side); A is the surface area for the transport, i.e. 0.0804 cm^2 for the area of the monolayer; CO is the initial concentration in the donor chamber (μM).

human BACE1 = human BACE1 (Homo sapiens, UniProt P56817); experiment: BACE1 binding assay (SPA-based radioligand binding); design: biotin (biotinylated form); made in house; host or cells: Freestyle HEK293 cells; details: pH 4.5, 10 nM radioligand, Ki=IC50/(1+L/Kd)
Method: The binding assay was performed as SPA-based assay using a biotinylated form of human BACE1 recombinantly expressed and subsequently purified from Freestyle HEK293 cells. The binding assay was run in a 50 mM sodium acetate buffer, pH 4.5 containing 50 mM NaCl and 0.03% Tween-20 in white clear bottom 384 plates (Corning #3653). 10 nM (final concentration) radioligand ([^3H]—N-((1S,2R)-1-benzyl-3-cyclopropylamino-2-hydroxy-propyl)-5-(methanesulfonyl-methyl-amino)-N—((R)-1-phenyl-ethyl)-isophthalamide) (TRQ11569 purchased from GE Healthcare) was mixed with test compound at a given concentration, 6 nM (final concentration) human BACE1 and 25 μg Streptavidin coated PVT core SPA beads (RPNQ0007, GE Healthcare Life Sciences) in a total volume of 40 μl. Several concentrations of each test compound were tested in the assay for […] determination. The plates were incubated for one hour at room temperature and counted in a Wallac Trilux counter. Total and non-specific binding were determined using buffer and 1 μM (final concentration) of the high affinity BACE1 reference inhibitor (S)-6-[3-chloro-5-(5-prop-1-ynyl-pyridin-3-yl)-thiophen-2-yl]-2-imino-3,6-dimethyl-tetrahydro-pyrimidin-4-one, respectively. For each test compound, a 1050 value (the concentration mediating 50% inhibition of the specific binding of the radioligand) was determined from concentration-response curve and used to calculate the Ki from the equation Ki=IC50/(1+L/Kd), where L and Kd are the final concentration of the radioligand used in the assay and the dissociation constant of the radioligand, respectively. The Kd of the radioligand was determined from saturation binding experiments.

Sequence of human BACE1 (P56817 46-501): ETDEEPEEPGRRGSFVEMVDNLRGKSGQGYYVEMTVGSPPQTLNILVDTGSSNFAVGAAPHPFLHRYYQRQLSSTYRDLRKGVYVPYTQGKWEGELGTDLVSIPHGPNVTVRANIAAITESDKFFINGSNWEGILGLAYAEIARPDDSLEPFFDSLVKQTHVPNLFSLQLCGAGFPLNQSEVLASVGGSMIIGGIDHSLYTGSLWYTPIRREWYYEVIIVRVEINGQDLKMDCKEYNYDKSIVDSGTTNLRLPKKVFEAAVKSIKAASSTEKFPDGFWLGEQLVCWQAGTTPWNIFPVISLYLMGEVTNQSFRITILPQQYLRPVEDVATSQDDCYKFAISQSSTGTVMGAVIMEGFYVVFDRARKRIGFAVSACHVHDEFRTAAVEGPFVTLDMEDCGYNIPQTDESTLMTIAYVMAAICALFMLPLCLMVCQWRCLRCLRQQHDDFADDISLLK

Row | SMILES | efflux ratio at 60 min, 0.5 μM (P-gp (MDR1)) | Ki (human BACE1) | also measured
1 | [2H]C([2H])([2H])Oc1ccc(C(=O)Nc2ccc(F)c([C@]34COC[C@@]3(F)C[C@](C)(F)C(N)=N4)c2)nc1 [Example 1, N-(3-((3S,4aR,7aS)-2-amino-3,4a-difluoro-3-methyl-3,4,4a,5-tetrahydrofuro[3,4-b]pyridin-7a-yl)-4-fluorophenyl)-5-(methoxy-d3)picolinamide] | – | – | Aβ40 reduction (Aβ40 peptide; Brain, 10 mg/kg p.o.): 34%; Aβ40 reduction (Aβ40 peptide; Brain, 30 mg/kg p.o.): 54%; Aβ40 reduction (Aβ40 peptide; Plasma, 10 mg/kg p.o.): 38%; Aβ40 reduction (Aβ40 peptide; Plasma, 30 mg/kg p.o.): 52%; concentration at 3 h ([1]; Brain, 10 mg/kg p.o.): 194 ng/g; concentration at 3 h ([1]; Brain, 30 mg/kg p.o.): 951 ng/g; concentration at 3 h ([1]; Plasma, 10 mg/kg p.o.): 184 ng/g; concentration at 3 h ([1]; Plasma, 30 mg/kg p.o.): 634 ng/g; Kp at 3 h ([1]; 10 mg/kg p.o.): 1.06; Kp at 3 h ([1]; 30 mg/kg p.o.): 1.5
2 | C[C@]1(F)C[C@]2(F)COC[C@]2(c2cc(NC(=O)c3cnc(C(F)F)cn3)ccc2F)N=C1N [Example 3, N-(3-((3S,4aR,7aS)-2-amino-3,4a-difluoro-3-methyl-3,4,4a,5,7,7a-hexahydrofuro[3,4-b]pyridin-7a-yl)-4-fluorophenyl)-5-(difluoromethyl)pyrazine-2-carboxamide] | 0.96 | 48 nM | –
3 | C[C@]1(F)C[C@]2(F)COC[C@]2(c2cc(NC(=O)c3ccc(Cl)cn3)ccc2F)N=C1N [Example 6, N-(3-((3S,4aR,7aS)-2-amino-3,4a-difluoro-3-methyl-3,4,4a,5,7,7a-hexahydrofuro[3,4-b]pyridin-7a-yl)-4-fluorophenyl)-5-chloropicolinamide] | 1.01 | 6.4 nM | –
4 | Cc1csc(C(=O)Nc2ccc(F)c([C@]34COC[C@@]3(F)C[C@@](C)(F)C(N)=N4)c2)n1 [Example 9, N-(3-((3R,4aR,7aS)-2-amino-3,4a-difluoro-3-methyl-3,4,4a,5,7,7a-hexahydrofuro[3,4-b]pyridin-7a-yl)-4-fluorophenyl)-4-methylthiazole-2-carboxamide] | 1.33 | 23 nM | –
5 | [2H]C([2H])([2H])Oc1cnc(C(=O)Nc2ccc(F)c([C@]34COC[C@@]3(F)C[C@@](C)(F)C(N)=N4)c2)cn1 [Example 13, N-(3-((3R,4aR,7aS)-2-amino-3,4a-difluoro-3-methyl-3,4,4a,5-tetrahydrofuro[3,4-b]pyridin-7a-yl)-4-fluorophenyl)-5-(methoxy-d3)pyrazine-2-carboxamide] | – | 29 nM | –
6 | COc1ccc(C(=O)Nc2cc(F)c(F)c([C@]34COC[C@H]3C[C@@](F)(CF)C(N)=N4)c2)nc1 [Example 25, N-[3-[(3S,4aS,7aS)-2-amino-3-fluoro-3-(fluoromethyl)-4,4a,5,7-tetrahydrofuro[3,4-b]pyridin-7a-yl]-4,5-difluoro-phenyl]-5-methoxy-pyridine-2-carboxamide] | – | 230 nM | –

Continued by falling Ki (human BACE1), values first:

Row | efflux ratio at 60 min, 0.5 μM (P-gp (MDR1)) | Ki (human BACE1) | SMILES | also measured
7 | – | 340 nM | NC1=N[C@@]2(c3cc(NC(=O)c4ccc(F)cn4)cc(F)c3F)COC[C@H]2C[C@]1(F)CF [Example 19, N-[3-[(3R,4aS,7aS)-2-amino-3-fluoro-3-(fluoromethyl)-4,4a,5,7-tetrahydrofuro[3,4-b]pyridin-7a-yl]-4,5-difluoro-phenyl]-5-fluoro-pyridine-2-carboxamide] | –
8 | 2.46 | 22 nM | Cc1nc(C(=O)Nc2ccc(F)c([C@]34COC[C@@]3(F)C[C@@](C)(F)C(N)=N4)c2)co1 [Example 10, N-(3-((3R,4aR,7aS)-2-amino-3,4a-difluoro-3-methyl-3,4,4a,5,7,7a-hexahydrofuro[3,4-b]pyridin-7a-yl)-4-fluorophenyl)-2-methyloxazole-4-carboxamide] | –
9 | 1.23 | 14 nM | C[C@@]1(F)C[C@]2(F)COC[C@]2(c2cc(NC(=O)c3cnc(C(F)F)cn3)ccc2F)N=C1N [Example 8, N-(3-((3R,4aR,7aS)-2-amino-3,4a-difluoro-3-methyl-3,4,4a,5,7,7a-hexahydrofuro[3,4-b]pyridin-7a-yl)-4-fluorophenyl)-5-(difluoromethyl)pyrazine-2-carboxamide] | –
10 | 0.91 | 9.3 nM | C[C@@]1(F)C[C@]2(F)COC[C@]2(c2cc(NC(=O)c3ccc(Cl)cn3)ccc2F)N=C1N [Example 14, N-(3-((3R,4aR,7aS)-2-amino-3,4a-difluoro-3-methyl-3,4,4a,5,7,7a-hexahydrofuro[3,4-b]pyridin-7a-yl)-4-fluorophenyl)-5-chloropicolinamide] | –
